# From PubChem BioAssay (NCI)
#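 Grown in 96-well plates, cells were treated for 48 hours with each compound at five concentrations. Insufficient inhibition: endpoint recorded as highest concentration tested. TGI: total growth inhibition.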
# System: OVCAR-8 ovarian
# Test: inhibition of tumour cell growth, NCI panel, 48 h
row,SMILES,TGI [µM]
1,COc1ccc(N2C(=O)C3c4[nH]c5ccccc5c4C4C(C)CCCC4C3C2=O)cc1 (stereo not given),> 100
2,CCOC(=O)Cc1nn2c(=O)cc(C)nc2s1,> 100
3,COP(=O)(CC(=O)C1OC(OCc2ccccc2)C(OCc2ccccc2)C(OCc2ccccc2)C1OCc1ccccc1)OC (stereo not given),> 100
4,CCOC1NC(=O)c2ccccc21 (stereo not given),> 100
5,CCN(C(=O)N[C@H](C(=O)N[C@@H](C)C(=O)OC)C(C)C)c1ccccc1,63.2
6,Cc1cc2c(cc1Cl)SC(NNc1cnc3ccccc3n1)=NS2(=O)=O,> 100
7,O=[N+]([O-])c1ccc2nc3c(nc2c1)-c1c2ccccc2cc2cccc-3c12,> 30.6
8,COc1ccc(CN2C(=O)C(=O)N(C)C2=O)c2ccccc12,> 10
9,OCC1OC(O[C@H]2CN3[C@H](O)[C@@H](O)[C@H](O)[C@H]3C2O)C(O)C(O)C1O (stereo not given in full),> 100
10,CC1OC(n2cc(F)c(=O)[nH]c2=O)C(O[Si](C)(C)C(C)(C)C)C1O[Si](C)(C)C(C)(C)C (stereo not given),28.9
11,O=S1(=O)c2ccccc2NC(=S)N1c1ccccc1,> 100
12,COC(=O)C(CCSC)NC(=O)CSc1nnc(COc2ccc(Cl)cc2)n1-c1ccccc1 (stereo not given),36.3
13,Cc1ccc(-n2cc(-c3ccc(Cl)cc3)c3c2N=CN2NC(c4ccco4)=NC32)cc1 (stereo not given),27.5
14,COc1cc(/C=C/c2cc(=O)cc(/C=C/c3ccc(O)c(OC)c3)o2)ccc1O,> 100
15,COn1cc(CO)c2ccccc21,> 100
16,COc1cc2nc(-c3c(F)cccc3F)n(Cc3c(F)cccc3F)c2cc1Cc1c(F)cccc1F,> 100
17,O=C(/C=C1\C[C@H]2C=Nc3ccccc3C(=O)N2C1)NCCCCCNC(=O)/C=C1\C[C@H]2C=Nc3ccccc3C(=O)N2C1,7.31

# System: SK-MEL-5 melanoma
# Test: inhibition of tumour cell growth, NCI panel, 48 h
row,SMILES,TGI [µM]
1,COc1ccc(N2C(=O)C3c4[nH]c5ccccc5c4C4C(C)CCCC4C3C2=O)cc1 (stereo not given),> 100
2,CCOC(=O)Cc1nn2c(=O)cc(C)nc2s1,> 100
3,COP(=O)(CC(=O)C1OC(OCc2ccccc2)C(OCc2ccccc2)C(OCc2ccccc2)C1OCc1ccccc1)OC (stereo not given),16.8
4,CCOC1NC(=O)c2ccccc21 (stereo not given),> 100
5,CCN(C(=O)N[C@H](C(=O)N[C@@H](C)C(=O)OC)C(C)C)c1ccccc1,> 100
6,Cc1cc2c(cc1Cl)SC(NNc1cnc3ccccc3n1)=NS2(=O)=O,> 100
7,O=[N+]([O-])c1ccc2nc3c(nc2c1)-c1c2ccccc2cc2cccc-3c12,> 100
8,COc1ccc(CN2C(=O)C(=O)N(C)C2=O)c2ccccc12,> 10
9,OCC1OC(O[C@H]2CN3[C@H](O)[C@@H](O)[C@H](O)[C@H]3C2O)C(O)C(O)C1O (stereo not given in full),> 100
10,CC1OC(n2cc(F)c(=O)[nH]c2=O)C(O[Si](C)(C)C(C)(C)C)C1O[Si](C)(C)C(C)(C)C (stereo not given),28.2
11,O=S1(=O)c2ccccc2NC(=S)N1c1ccccc1,> 100
12,COC(=O)C(CCSC)NC(=O)CSc1nnc(COc2ccc(Cl)cc2)n1-c1ccccc1 (stereo not given),32.7
13,Cc1ccc(-n2cc(-c3ccc(Cl)cc3)c3c2N=CN2NC(c4ccco4)=NC32)cc1 (stereo not given),> 100
14,COc1cc(/C=C/c2cc(=O)cc(/C=C/c3ccc(O)c(OC)c3)o2)ccc1O,> 100
15,COn1cc(CO)c2ccccc21,> 100
16,COc1cc2nc(-c3c(F)cccc3F)n(Cc3c(F)cccc3F)c2cc1Cc1c(F)cccc1F,> 100
17,O=C(/C=C1\C[C@H]2C=Nc3ccccc3C(=O)N2C1)NCCCCCNC(=O)/C=C1\C[C@H]2C=Nc3ccccc3C(=O)N2C1,> 51

# System: SK-OV-3 ovarian
# Test: inhibition of tumour cell growth, NCI panel, 48 h
row,SMILES,TGI [µM]
1,COc1ccc(N2C(=O)C3c4[nH]c5ccccc5c4C4C(C)CCCC4C3C2=O)cc1 (stereo not given),> 100
2,CCOC(=O)Cc1nn2c(=O)cc(C)nc2s1,> 100
3,COP(=O)(CC(=O)C1OC(OCc2ccccc2)C(OCc2ccccc2)C(OCc2ccccc2)C1OCc1ccccc1)OC (stereo not given),> 100
4,CCOC1NC(=O)c2ccccc21 (stereo not given),> 100
5,CCN(C(=O)N[C@H](C(=O)N[C@@H](C)C(=O)OC)C(C)C)c1ccccc1,> 100
6,Cc1cc2c(cc1Cl)SC(NNc1cnc3ccccc3n1)=NS2(=O)=O,> 100
7,O=[N+]([O-])c1ccc2nc3c(nc2c1)-c1c2ccccc2cc2cccc-3c12,60.9
8,COc1ccc(CN2C(=O)C(=O)N(C)C2=O)c2ccccc12,> 10
9,OCC1OC(O[C@H]2CN3[C@H](O)[C@@H](O)[C@H](O)[C@H]3C2O)C(O)C(O)C1O (stereo not given in full),> 100
10,CC1OC(n2cc(F)c(=O)[nH]c2=O)C(O[Si](C)(C)C(C)(C)C)C1O[Si](C)(C)C(C)(C)C (stereo not given),32
11,O=S1(=O)c2ccccc2NC(=S)N1c1ccccc1,> 100
12,COC(=O)C(CCSC)NC(=O)CSc1nnc(COc2ccc(Cl)cc2)n1-c1ccccc1 (stereo not given),43.2
13,Cc1ccc(-n2cc(-c3ccc(Cl)cc3)c3c2N=CN2NC(c4ccco4)=NC32)cc1 (stereo not given),16
14,COc1cc(/C=C/c2cc(=O)cc(/C=C/c3ccc(O)c(OC)c3)o2)ccc1O,> 100
15,COn1cc(CO)c2ccccc21,> 100
16,COc1cc2nc(-c3c(F)cccc3F)n(Cc3c(F)cccc3F)c2cc1Cc1c(F)cccc1F,> 100
17,O=C(/C=C1\C[C@H]2C=Nc3ccccc3C(=O)N2C1)NCCCCCNC(=O)/C=C1\C[C@H]2C=Nc3ccccc3C(=O)N2C1,30.3

# System: U251 CNS
# Test: inhibition of tumour cell growth, NCI panel, 48 h
row,SMILES,TGI [µM]
1,COc1ccc(N2C(=O)C3c4[nH]c5ccccc5c4C4C(C)CCCC4C3C2=O)cc1 (stereo not given),> 100
2,CCOC(=O)Cc1nn2c(=O)cc(C)nc2s1,> 100
3,COP(=O)(CC(=O)C1OC(OCc2ccccc2)C(OCc2ccccc2)C(OCc2ccccc2)C1OCc1ccccc1)OC (stereo not given),> 100
4,CCOC1NC(=O)c2ccccc21 (stereo not given),> 100
5,CCN(C(=O)N[C@H](C(=O)N[C@@H](C)C(=O)OC)C(C)C)c1ccccc1,86.6
6,Cc1cc2c(cc1Cl)SC(NNc1cnc3ccccc3n1)=NS2(=O)=O,> 100
7,O=[N+]([O-])c1ccc2nc3c(nc2c1)-c1c2ccccc2cc2cccc-3c12,> 66
8,COc1ccc(CN2C(=O)C(=O)N(C)C2=O)c2ccccc12,> 10
9,OCC1OC(O[C@H]2CN3[C@H](O)[C@@H](O)[C@H](O)[C@H]3C2O)C(O)C(O)C1O (stereo not given in full),> 100
10,CC1OC(n2cc(F)c(=O)[nH]c2=O)C(O[Si](C)(C)C(C)(C)C)C1O[Si](C)(C)C(C)(C)C (stereo not given),26.9
11,O=S1(=O)c2ccccc2NC(=S)N1c1ccccc1,> 100
12,COC(=O)C(CCSC)NC(=O)CSc1nnc(COc2ccc(Cl)cc2)n1-c1ccccc1 (stereo not given),30.9
13,Cc1ccc(-n2cc(-c3ccc(Cl)cc3)c3c2N=CN2NC(c4ccco4)=NC32)cc1 (stereo not given),20.8
14,COc1cc(/C=C/c2cc(=O)cc(/C=C/c3ccc(O)c(OC)c3)o2)ccc1O,> 100
15,COn1cc(CO)c2ccccc21,> 100
16,COc1cc2nc(-c3c(F)cccc3F)n(Cc3c(F)cccc3F)c2cc1Cc1c(F)cccc1F,> 100
17,O=C(/C=C1\C[C@H]2C=Nc3ccccc3C(=O)N2C1)NCCCCCNC(=O)/C=C1\C[C@H]2C=Nc3ccccc3C(=O)N2C1,9.05

# System: UACC-62 melanoma
# Test: inhibition of tumour cell growth, NCI panel, 48 h
row,SMILES,TGI [µM]
1,COc1ccc(N2C(=O)C3c4[nH]c5ccccc5c4C4C(C)CCCC4C3C2=O)cc1 (stereo not given),> 100
2,CCOC(=O)Cc1nn2c(=O)cc(C)nc2s1,> 100
3,COP(=O)(CC(=O)C1OC(OCc2ccccc2)C(OCc2ccccc2)C(OCc2ccccc2)C1OCc1ccccc1)OC (stereo not given),17.8
4,CCOC1NC(=O)c2ccccc21 (stereo not given),> 100
5,CCN(C(=O)N[C@H](C(=O)N[C@@H](C)C(=O)OC)C(C)C)c1ccccc1,55.7
6,Cc1cc2c(cc1Cl)SC(NNc1cnc3ccccc3n1)=NS2(=O)=O,> 100
7,O=[N+]([O-])c1ccc2nc3c(nc2c1)-c1c2ccccc2cc2cccc-3c12,39.2
8,COc1ccc(CN2C(=O)C(=O)N(C)C2=O)c2ccccc12,> 10
9,OCC1OC(O[C@H]2CN3[C@H](O)[C@@H](O)[C@H](O)[C@H]3C2O)C(O)C(O)C1O (stereo not given in full),> 100
10,CC1OC(n2cc(F)c(=O)[nH]c2=O)C(O[Si](C)(C)C(C)(C)C)C1O[Si](C)(C)C(C)(C)C (stereo not given),28.6
11,O=S1(=O)c2ccccc2NC(=S)N1c1ccccc1,> 100
12,COC(=O)C(CCSC)NC(=O)CSc1nnc(COc2ccc(Cl)cc2)n1-c1ccccc1 (stereo not given),32.7
13,Cc1ccc(-n2cc(-c3ccc(Cl)cc3)c3c2N=CN2NC(c4ccco4)=NC32)cc1 (stereo not given),31.5
14,COc1cc(/C=C/c2cc(=O)cc(/C=C/c3ccc(O)c(OC)c3)o2)ccc1O,> 100
15,COn1cc(CO)c2ccccc21,> 100
16,COc1cc2nc(-c3c(F)cccc3F)n(Cc3c(F)cccc3F)c2cc1Cc1c(F)cccc1F,> 100
17,O=C(/C=C1\C[C@H]2C=Nc3ccccc3C(=O)N2C1)NCCCCCNC(=O)/C=C1\C[C@H]2C=Nc3ccccc3C(=O)N2C1,28.8
